{"source": "patent US20220056012A1", "about": "“AMORPHOUS FORM OF A MALT1 INHIBITOR AND FORMULATIONS THEREOF” (Janssen Pharmaceutica NV, priority 2020, published 2022)", "format_in_all_cases": "physicochemical", "key": {"[1]": {"assay": "Dissolution in 900 mL FaSSIF medium at pH 6.5 (FIG. 20)", "details": "pH 6.5, capsules in blend", "method": "FIG. 20: Dissolution rates of different compositions in 900 mL FaSSIF medium at pH 6.5. The different compositions are: 25 mg ASD capsule HPMC AS MG 1/3 in blend; 50 mg ASD capsule HPMC AS MG 1/1 in blend; 50 mg ASD capsule EL100-55 1/1 in blend; 50 mg LFHG PEG1500 (liquid filled) capsule; 100 mg capsule amorphous API in blend; 25 mg ASD capsule EL100-55 1/3 in blend; and 100 mg capsule crystalline API in blend."}, "[2]": {"assay": "Hygroscopicity of crystalline form"}, "[3]": {"assay": "Crystalline conversion of isolated amorphous Compound A on storage"}, "[4]": {"assay": "Glass transition temperature (Tg) by DSC, Tg vs % RH", "details": "amorphous Compound A without polymer", "method": "The Tg vs RH results for HPMCAS-LG amorphous SDDs (FIG. 18 and Table 10) show the Tg's range from 111 to 119° C. under dry conditions and are depressed down to 52 to 59° C. at 75% RH. Both dry and wet Tg increase with increased drug loading."}, "[5]": {"assay": "2-phase (SGF/FaSSIF) miniaturized dissolution of films", "details": "SGF-FaSSIF, 37° C., films with 200 μg Compound A", "method": "In vitro, 2-phase (SGF/FaSSIF) miniaturized dissolution was performed, where the amount of dissolved compound A was monitored in function of time. Before starting the dissolution assay, the films were stored for one day at room temperature. By doing so, most of the residual solvent had evaporated. Actual dissolution experiments were performed in 96 1 mL glass vials using the Hamilton STAR plus liquid handling platform for both sampling and sample preparation. Before adding the dissolution media to the films, an equilibration time of approximately 60 minutes was needed to preheat the media to 37° C. After equilibration, 300 μL of preheated SGF (37° C., pH 1.3) was added to the amorphous solid dispersions. After 15 minutes of incubation in SGF, 600 μL of preheated concentrated FaSSIF (37° C., pH 10.5) was added to the samples. […] At predetermined time intervals, aliquots were withdrawn from the dissolution media and filtered through a 0.45 μm GHP membrane filter. Subsequently, the filtered solutions were quantitatively diluted (10×) with N-methylpyrrolidone (NMP) to prevent possible precipitation. The amount of dissolved compound A was determined by UPLC. Films were incubated at 37° C. throughout the entire assay. Experiments were performed in duplicate."}, "[6]": {"assay": "Stability of amorphous formulations by XRD at normal and accelerated conditions", "method": "Stability of the prepared formulations of Compound A was measured by XRD at normal and accelerated conditions, showing that all the prepared formulations of the compound, be it alone or combined with a polymer, are amorphous."}}, "data": [{"smiles": "O=C(Nc1ccnc(C(F)(F)F)c1)c1cnn(-c2cccc3c(=O)[nH]ccc23)c1C(F)(F)F", "note": "[Form I, 1-(1-oxo-1,2-dihydroisoquinolin-5-yl)-5-(trifluoromethyl)-N-[2-(trifluoromethyl)pyridin-4-yl]-1H-pyrazole-4-carboxamide]", "values": [{"measurement": "dissolution rate", "setting": "[1]", "result": "dropped considerably"}, {"measurement": "hygroscopicity", "setting": "[2]", "result": "hygroscopic behavior"}]}, {"smiles": "O=C(Nc1ccnc(C(F)(F)F)c1)c1cnn(-c2cccc3c(=O)[nH]ccc23)c1C(F)(F)F", "note": "[amorphous form of Compound A, 1-(1-oxo-1,2-dihydroisoquinolin-5-yl)-5-(trifluoromethyl)-N-[2-(trifluoromethyl)pyridin-4-yl]-1H-pyrazole-4-carboxamide]", "values": [{"measurement": "solid state after storage (stability DSC data)", "setting": "[3]; 6 MOS at 40°/75% RH, open-dish", "result": "still amorphous"}, {"measurement": "crystalline conversion after exposure", "setting": "[3]; 10% RH, 50° C., 28 days", "result": "no crystalline conversion"}, {"measurement": "crystalline conversion after exposure", "setting": "[3]; 75% RH, 40° C., open condition, 6 months", "result": "no crystalline conversion"}, {"measurement": "crystalline conversion after exposure", "setting": "[3]; 75% RH, 50° C., 28 days", "result": "no crystalline conversion"}, {"measurement": "crystalline conversion after exposure", "setting": "[3]; 75% RH, 50° C., closed condition, 6 months", "result": "no crystalline conversion"}, {"measurement": "glass transition temperature", "setting": "[4]", "result": 133, "unit": "°C"}, {"measurement": "glass transition temperature", "setting": "[4]; listed as spray dried Compound A", "result": 132, "unit": "°C"}, {"measurement": "initial release, concentration", "setting": "[5]", "result": "60 to 80", "unit": "µg/mL"}, {"measurement": "XRD result", "setting": "[6]; 40° C. closed 1M", "result": "amorph."}, {"measurement": "XRD result", "setting": "[6]; 40° C. closed 2M", "result": "amorph."}, {"measurement": "XRD result", "setting": "[6]; 40° C. closed 6M", "result": "amorph."}, {"measurement": "XRD result", "setting": "[6]; 40° C./75% RH open 6M", "result": "amorph."}, {"measurement": "XRD result", "setting": "[6]; 40° C/75% RH open 1M", "result": "amorph."}, {"measurement": "XRD result", "setting": "[6]; 40° C/75% RH open 2M", "result": "amorph."}, {"measurement": "XRD result", "setting": "[6]; 50° C. closed 1M", "result": "amorph."}, {"measurement": "XRD result", "setting": "[6]; 50° C. closed 2M", "result": "amorph."}, {"measurement": "XRD result", "setting": "[6]; 50° C. closed 6M", "result": "amorph."}, {"measurement": "XRD result", "setting": "[6]; RT closed 1M", "result": "amorph."}, {"measurement": "XRD result", "setting": "[6]; RT closed 2M", "result": "amorph."}, {"measurement": "XRD result", "setting": "[6]; RT closed 6M", "result": "amorph."}, {"measurement": "XRD result", "setting": "[6]; RT/56% RH open 1M", "result": "amorph."}, {"measurement": "XRD result", "setting": "[6]; RT/56% RH open 2M", "result": "amorph."}, {"measurement": "XRD result", "setting": "[6]; RT/56% RH open 6M", "result": "amorph."}, {"measurement": "XRD result", "setting": "[6]; T0", "result": "amorph."}]}]}
